Results: patent publication US20220009920A1 (GB005, Inc., priority 2020, published 2022)

Legend:
[1] = target: T1, BTK (Homo sapiens, UniProt Q06187); test: Assay to determine activity against BTK; assay type: biochemical; conditions: 1 mM ATP, 2 nM BTK, 90 minutes at room temperature
T1 construct: purchased Cama
Method in brief: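 Recombinant BTK (2 nM) was assayed with 1.5 µM FL-peptide and 1 mM ATP in pH 7.5 HEPES buffer with MgCl2, DTT, BSA and EGTA, for 90 min at room temperature before an EDTA stop. Peptide conversion ratio was read by mobility-shift, and IC50 came from 11-point 3-fold dilution curves.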

[2] = target: T2, CAMKK1 (Homo sapiens, UniProt Q8N5S9); test: Large panel kinase profiling; assay type: biochemical; conditions: 1 μM test article, 1 mM ATP
T2 construct: AssayQuant Technologies, Inc. (ran the panel)
T2 sequence (Q8N5S9 whole entry, species assumed): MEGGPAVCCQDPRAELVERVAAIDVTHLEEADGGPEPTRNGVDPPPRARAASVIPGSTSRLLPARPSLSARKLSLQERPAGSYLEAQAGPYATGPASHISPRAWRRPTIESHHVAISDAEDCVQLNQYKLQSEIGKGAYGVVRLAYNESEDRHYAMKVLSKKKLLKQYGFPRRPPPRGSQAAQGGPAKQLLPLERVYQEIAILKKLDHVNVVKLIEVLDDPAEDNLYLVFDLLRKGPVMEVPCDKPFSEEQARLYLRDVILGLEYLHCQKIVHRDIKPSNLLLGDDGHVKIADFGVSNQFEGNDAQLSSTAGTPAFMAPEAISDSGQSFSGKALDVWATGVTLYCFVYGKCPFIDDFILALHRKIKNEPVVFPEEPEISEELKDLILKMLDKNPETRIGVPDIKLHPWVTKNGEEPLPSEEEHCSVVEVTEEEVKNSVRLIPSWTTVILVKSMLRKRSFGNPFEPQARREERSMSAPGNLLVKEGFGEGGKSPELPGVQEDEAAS
Method: (§1) Large panel kinase profiling was performed at AssayQuant Technologies, Inc. 260 Cedar Hill Street, Marlborough, Mass. 01752 using the PhosphoSens® CSox-Sensor platform using 1 μM test article concentration and 1 mM ATP concentration (www.assayquant.com). Reactions were run in Corning, half-area 96-well, white flat round bottom polystyrene NBS microplates (Cat. #3642) after sealing using optically-clear adhesive film (TopSealA-Plus plate seal, PerkinElmer), applied with either a roller or a paddle to eliminate evaporation and resulting drift. The standard total reaction volume was 50 μL. All experiments were ran at 30° C. to control for fluctuations in ambient temperature. Plates were read from the top in kinetic mode (readings taken every 1 min), monitoring fluorescence intensity with filters using Ex 360 nm and Em 485 nm and a band width of 40 and 20 nm, respectively, and a gain of 80. Data analysis was performed using either Graphpad Prism or Gene Data Screener software.

[3] = target: T3, MAP3K7 (Homo sapiens, UniProt O43318); test: Large panel kinase profiling; assay type: biochemical; conditions: 1 μM test article, 1 mM ATP
T3 construct: AssayQuant Technologies, Inc. (service provider)
T3 sequence (O43318 1-303 limits assumed): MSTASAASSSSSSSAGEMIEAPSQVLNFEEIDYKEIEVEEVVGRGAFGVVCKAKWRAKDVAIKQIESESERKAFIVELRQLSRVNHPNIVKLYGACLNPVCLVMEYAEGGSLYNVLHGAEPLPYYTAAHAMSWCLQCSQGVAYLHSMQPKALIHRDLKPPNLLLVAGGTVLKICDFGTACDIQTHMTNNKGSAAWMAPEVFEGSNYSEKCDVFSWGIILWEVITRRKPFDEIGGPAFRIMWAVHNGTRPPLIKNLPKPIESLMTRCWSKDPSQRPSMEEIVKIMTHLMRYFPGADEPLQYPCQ
Method: as §1

[4] = Plasma and total brain concentrations at 1 h post single oral administration to male Wistar Han rats; assay type: in vivo; conditions: rat, 10 mg/kg oral gavage; for Kp at 1 h: brain/plasma, read-out: brain to plasma ratio
Method: (§2) The appropriate amount of test article was dissolved 10% dimethylacetamide (DMA)/90% (20% hydroxypropyl-β-cyclodextrin (HP-B-CD) w/v in water to obtain a final concentration of 1 mg/mL for oral dosing. Sonication, vortex, and homogenization was used as needed. Three male Wistar Han rats aged 6-8 weeks (200-300 grams) were dosed by oral gavage 10 mg/kg solution of the test article.
At 1 h, blood and whole brains were collected. Blood was collected via cardiac puncture into tubes containing potassium EDTA and kept on ice until plasma collection. Plasma was obtained via centrifugation at 4000×g for five minutes at 4° C. Following exsanguination, animals were transcardially perfused with approximately 20 mL of saline, and brains were collected and immediately frozen. Plasma and brains were at −75±15° C. until analysis.
The desired serial concentrations of working solutions were achieved by diluting stock solution of analyte with 50% acetonitrile in water solution. 5 μL of working solutions (2, 5, 10, 50, 100, 500, 1000, 5000, 10000 ng/mL) were added to 50 μL of the male blank Wistar Han rats plasma, brain homogenate to achieve calibration standards of 0.2˜1000 ng/mL (0.2, 0.5, 1, 5, 10, 50, 100, 500, 1000 ng/mL) in a total volume of 55 μL. Four quality control samples at 0.5 ng/mL, 1 ng/mL, 50 ng/mL and 800 ng/mL for plasma, brain homogenate were prepared independently of those used for the calibration curves. These QC samples were prepared on the day of analysis in the same way as calibration standards.
55 μL of standards, 55 μL of QC samples and 55 μL of unknown samples (50 μL of plasma, brain homogenate with 5 μL of blank solution) were added to 200 μL of acetonitrile containing IS mixture for precipitating protein respectively. Then the samples were vortexed for 30 s. After centrifugation at 4° C., 4700 rpm for 15 min, the supernatant was diluted 3 times with water. 10 μL of diluted supernatant was injected into the LC/MS/MS system for quantitative analysis.

[5] = Plasma and total brain concentrations at 1 h post single oral administration to female C57BL/6 mice; assay type: in vivo; conditions: mouse, 10 mg/kg oral gavage; for Kp at 1 h: brain/plasma, read-out: brain to plasma ratio
Method: as §2, with “female C57BL/6 mice” for “male Wistar Han rats”, “7-9” for “6-8”, “(20-30” for “(200-300”
Concentrations of test compounds in the plasma and brain samples (use plasma and brain homogenate standard curve for all samples appropriately) were analyzed using LC-MS/MS. Compounds having a brain-to-plasma ratio of greater than 0.2 were considered brain penetrant.

[6] = plasma, read-out: Mean [plasma]

T1 sequence (Q06187 whole entry): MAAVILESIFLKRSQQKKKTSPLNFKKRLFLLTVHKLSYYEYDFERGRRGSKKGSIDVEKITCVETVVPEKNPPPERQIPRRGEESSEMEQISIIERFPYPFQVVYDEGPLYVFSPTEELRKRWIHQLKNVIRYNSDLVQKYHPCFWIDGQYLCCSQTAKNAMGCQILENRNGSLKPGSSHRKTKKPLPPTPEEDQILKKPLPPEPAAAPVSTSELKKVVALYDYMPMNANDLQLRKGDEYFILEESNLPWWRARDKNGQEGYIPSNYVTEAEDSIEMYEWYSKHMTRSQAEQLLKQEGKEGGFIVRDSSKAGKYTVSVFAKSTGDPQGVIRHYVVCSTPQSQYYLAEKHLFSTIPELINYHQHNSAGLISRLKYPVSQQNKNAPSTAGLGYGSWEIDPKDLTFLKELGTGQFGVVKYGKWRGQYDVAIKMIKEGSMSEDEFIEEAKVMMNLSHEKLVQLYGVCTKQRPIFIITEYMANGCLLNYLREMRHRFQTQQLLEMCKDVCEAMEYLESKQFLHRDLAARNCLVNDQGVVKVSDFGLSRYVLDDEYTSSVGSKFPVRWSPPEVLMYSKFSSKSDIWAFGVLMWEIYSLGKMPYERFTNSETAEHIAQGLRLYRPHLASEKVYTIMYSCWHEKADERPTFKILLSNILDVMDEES

Row | Compound | IC50 [1] [µM] | inhibition at 1 µM [2] [%] | inhibition at 1 µM [3] [%] | concentration at 1 h ([4]; brain, read-out: Mean [brain]) [ng/mL] | Kp at 1 h [4] | concentration at 1 h [4, 6] [ng/mL] | concentration at 1 h ([5]; brain, read-out: Mean [brain]) [ng/g] | Kp at 1 h [5] | concentration at 1 h [5, 6] [ng/mL]
1 | C=CC(=O)N1CCCC(c2c(F)cc(C(N)=O)c3[nH]c4c(c23)CCCCC4)C1 (single isomer, unassigned) [Compound 5-6] | < 0.01 | 22.2 | -19.6 | 84 | 0.43 | 196 | 16 | 0.4 | 42
2 | C=CC(=O)N1CCC[C@@H](c2c(F)cc(C(N)=O)c3[nH]c4c(c23)CC2(CC4)CC2)C1 [Compound 6-2, (S)-5-(1-acryloylpiperidin-3-yl)-6-fluoro-1,2,4,9-tetrahydrospiro[carbazole-3,1′-cyclopropane]-8-carboxamide] | < 0.01 | 5.7 | 10 | 108 | 0.28 | 395 | 18 | 0.24 | 78
3 | C=CC(=O)N1CCC[C@@H](c2c(F)cc(C(N)=O)c3[nH]c4c(c23)CCC4)C1 [Compound 10-2, (S)-8-(1-acryloylpiperidin-3-yl)-7-fluoro-1,2,3,4-tetrahydrocyclo-penta[b]indole-5-carboxamide] | < 0.01 | 3.7 | 13.2 | 116 | 0.29 | 421 | 72 | 0.37 | 191
